# Data from patent US10598672B2, “Methods and compositions for diagnosing and treating loss and/or distortion of taste or smell” (Cyrano Therapeutics, Inc., priority 2014, dated 2020).
# Marks after values point to notes of the source that are not given here.
# Key:
# Assay type in all cases: in vivo, human
# [1] = Body weight with calibrated clinical scale; conditions: 10 patients
# Procedure: (§1) Serum theophylline levels were measured by fluorescence polarization at each treatment condition. Body weight was measured with a calibrated clinical scale during each study condition and reported at the final measurement in each study condition.
# [2] = Serum theophylline level by fluorescence polarization
# Procedure: as §1
# patients with hyposmia = assay: Olfactometry: DT, RT, ME and H for pyridine, nitrobenzene, thiophene, amyl acetate; conditions: for AMYL ACETATE DT, detection threshold / AMYL ACETATE H, hedonic value / AMYL ACETATE ME, magnitude estimation / AMYL ACETATE RT, recognition threshold / NI[…], detection threshold / NI[…], hedonic value / NI[…], magnitude estimation / NI[…], recognition threshold / PYRIDINE DT, detection threshold / PYRIDINE H, hedonic value / PYRIDINE ME, magnitude estimation / PYRIDINE RT, recognition threshold / THIOPHENE DT, detection threshold / THIOPHENE H, hedonic value / THIOPHENE ME, magnitude estimation / THIOPHENE RT, recognition threshold: hyposmic, oral theophylline, Mean ± SEM
# [3] = ALL PATIENTS (31) treated with oral theophylline
# [4] = ALLERGIC RHINITIS (11) treated with oral theophylline
# [5] = CONGENITAL (9) treated with oral theophylline
# [6] = PIHH (10) treated with oral theophylline
# [7] = POST GENERAL ANESTHESIA (1) treated with oral theophylline
# [8] = after intranasal treatment vs before treatment or after oral treatment
# [9] = after oral treatment vs before treatment, 10 patients
# [10] = hyposmic patients TREATED (31) with oral theophylline
# [11] = oral theophylline dose 200 mg (6 patients)
# [12] = oral theophylline dose 400 mg (6 patients)
# [13] = oral theophylline dose 600 mg (14 patients)
# [14] = oral theophylline dose 800 mg (5 patients)
compound,measurement,setting,value
Cn1c(=O)c2[nH]cnc2n(C)c1=O [theophylline],"weight increase from pretreatment values, mean (SEM)",[1]; after intranasal treatment,2.5 (0.5) kg
same,"weight increase from pretreatment values, mean (SEM)",[1]; after oral treatment,1.5 (0.4) kg
same,mean (SEM) serum theophylline level,"[2]; during oral treatment, at time of maximum improvement, 10 patients",6.4 (2.0) mg/L
same,concentration at 4 weeks,"[2]; human, serum, other: intranasal, 20 μg per naris, during intranasal treatment",0 ng/mL
same,SMELL IMPROVEMENT Patient (%),patients with hyposmia; [3],61%
same,SMELL IMPROVEMENT Patient Number,patients with hyposmia; [3],19
same,SMELL IMPROVEMENT Patient (%),patients with hyposmia; [4],45%
same,SMELL IMPROVEMENT Patient Number,patients with hyposmia; [4],5
same,SMELL IMPROVEMENT Patient (%),patients with hyposmia; [5],56%
same,SMELL IMPROVEMENT Patient Number,patients with hyposmia; [5],5
same,SMELL IMPROVEMENT Patient (%),patients with hyposmia; [6],80%
same,SMELL IMPROVEMENT Patient Number,patients with hyposmia; [6],8
same,SMELL IMPROVEMENT Patient (%),patients with hyposmia; [7],100%
same,SMELL IMPROVEMENT Patient Number,patients with hyposmia; [7],1
same,"AMYL ACETATE DT, detection threshold",patients with hyposmia; TREATED MEN (19),4.7 ± 0.9^b BU
same,"AMYL ACETATE H, hedonic value",patients with hyposmia; TREATED MEN (19),3 ± 3%
same,"AMYL ACETATE ME, magnitude estimation",patients with hyposmia; TREATED MEN (19),17 ± 5%
same,"AMYL ACETATE RT, recognition threshold",patients with hyposmia; TREATED MEN (19),5.3 ± 0.9^a BU
same,"NI[…], detection threshold",patients with hyposmia; TREATED MEN (19),4.8 ± 1.1^b BU
same,"NI[…], hedonic value",patients with hyposmia; TREATED MEN (19),6 ± 5%
same,"NI[…], magnitude estimation",patients with hyposmia; TREATED MEN (19),19 ± 5%
same,"NI[…], recognition threshold",patients with hyposmia; TREATED MEN (19),5.2 ± 1.2^b BU
same,"PYRIDINE DT, detection threshold",patients with hyposmia; TREATED MEN (19),4.8 ± 0.9^a BU
same,"PYRIDINE H, hedonic value",patients with hyposmia; TREATED MEN (19),−30 ± 7%
same,"PYRIDINE ME, magnitude estimation",patients with hyposmia; TREATED MEN (19),36 ± 7%
same,"PYRIDINE RT, recognition threshold",patients with hyposmia; TREATED MEN (19),5.6 ± 1.0^c BU
same,"THIOPHENE DT, detection threshold",patients with hyposmia; TREATED MEN (19),5.6 ± 0.9^b BU
same,"THIOPHENE H, hedonic value",patients with hyposmia; TREATED MEN (19),−7 ± 3%
same,"THIOPHENE ME, magnitude estimation",patients with hyposmia; TREATED MEN (19),15 ± 5%
same,"THIOPHENE RT, recognition threshold",patients with hyposmia; TREATED MEN (19),7.6 ± 1.0 BU
same,"AMYL ACETATE DT, detection threshold",patients with hyposmia; TREATED WOMEN (12),7.4 ± 1.1 BU
same,"AMYL ACETATE H, hedonic value",patients with hyposmia; TREATED WOMEN (12),2 ± 6%
same,"AMYL ACETATE ME, magnitude estimation",patients with hyposmia; TREATED WOMEN (12),22 ± 7%
same,"AMYL ACETATE RT, recognition threshold",patients with hyposmia; TREATED WOMEN (12),8.7 ± 1.0 BU
same,"NI[…], detection threshold",patients with hyposmia; TREATED WOMEN (12),6.8 ± 1.4 BU
same,"NI[…], hedonic value",patients with hyposmia; TREATED WOMEN (12),8 ± 7%
same,"NI[…], magnitude estimation",patients with hyposmia; TREATED WOMEN (12),25 ± 8%
same,"NI[…], recognition threshold",patients with hyposmia; TREATED WOMEN (12),7.3 ± 1.1 BU
same,"PYRIDINE DT, detection threshold",patients with hyposmia; TREATED WOMEN (12),7.1 ± 0.9 BU
same,"PYRIDINE H, hedonic value",patients with hyposmia; TREATED WOMEN (12),−38 ± 8%
same,"PYRIDINE ME, magnitude estimation",patients with hyposmia; TREATED WOMEN (12),42 ± 9%
same,"PYRIDINE RT, recognition threshold",patients with hyposmia; TREATED WOMEN (12),8.0 ± 1.0 BU
same,"THIOPHENE DT, detection threshold",patients with hyposmia; TREATED WOMEN (12),7.1 ± 1.2 BU
same,"THIOPHENE H, hedonic value",patients with hyposmia; TREATED WOMEN (12),−19 ± 6%
same,"THIOPHENE ME, magnitude estimation",patients with hyposmia; TREATED WOMEN (12),30 ± 7%
same,"THIOPHENE RT, recognition threshold",patients with hyposmia; TREATED WOMEN (12),8.1 ± 1.3 BU
same,DTs and RTs for each odor,patients with hyposmia; [8],lower (more sensitive)
same,Hedonic responses to nitrobenzene,patients with hyposmia; [8],more positive (more pleasant)
same,Hedonic responses to thiophene,patients with hyposmia; [8],more negative (more unpleasant)
same,Magnitude estimations for each odor,patients with hyposmia; [8],higher (more intense)
same,DTs and RTs for all odorants,patients with hyposmia; [9],decreased (more sensitive)
same,HRs for all odorants,patients with hyposmia; [9],increased
same,MEs for all odorants,patients with hyposmia; [9],increased (more sensitive)
same,AMYL ACETATE DT,patients with hyposmia; [10],"1.2 ± 0.6^d,a2 BU"
same,AMYL ACETATE H,patients with hyposmia; [10],3 ± 4%
same,AMYL ACETATE ME,patients with hyposmia; [10],17 ± 5^a2%
same,AMYL ACETATE RT,patients with hyposmia; [10],5.5 ± 0.8^d BU
same,PYRIDINE DT,patients with hyposmia; [10],"5.7 ± 0.7^c,b2 BU"
same,PYRIDINE H,patients with hyposmia; [10],−32 ± 6%
same,PYRIDINE ME,patients with hyposmia; [10],40 ± 6%
same,PYRIDINE RT,patients with hyposmia; [10],6.7 ± 0.8^d BU
same,THEOPHENE DT,patients with hyposmia; [10],"5.1 ± 0.7^e,a2 BU"
same,THEOPHENE H,patients with hyposmia; [10],−9 ± 4^a2%
same,THEOPHENE ME,patients with hyposmia; [10],18 ± 4^a2%
same,THEOPHENE RT,patients with hyposmia; [10],"5.5 ± 0.8^e,e2 BU"
same,patients who exhibited improved smell function,patients with hyposmia; hyposmic patients after oral treatment (text of Example 9),60%
same,AMYL ACETATE DT,patients with hyposmia; [11],8.2 ± 2.1 BU
same,AMYL ACETATE H,patients with hyposmia; [11],8 ± 8%
same,AMYL ACETATE ME,patients with hyposmia; [11],12 ± 11%
same,AMYL ACETATE RT,patients with hyposmia; [11],8.6 ± 1.9 BU
same,PYRIDINE DT,patients with hyposmia; [11],8.4 ± 0.8 BU
same,PYRIDINE H,patients with hyposmia; [11],−34 ± 13%
same,PYRIDINE ME,patients with hyposmia; [11],35 ± 15%
same,PYRIDINE RT,patients with hyposmia; [11],9.8 ± 0.9 BU
same,THIOPHENE DT,patients with hyposmia; [11],8.2 ± 1.8 BU
same,THIOPHENE H,patients with hyposmia; [11],−14 ± 11%
same,THIOPHENE RT,patients with hyposmia; [11],8.8 ± 2.0 BU
same,Thiophene magnitude estimation (%),patients with hyposmia; [11],10 ± 15 BU
same,AMYL ACETATE DT,patients with hyposmia; [12],6.0 ± 1.0 BU
same,AMYL ACETATE H,patients with hyposmia; [12],0 ± 0%
same,AMYL ACETATE ME,patients with hyposmia; [12],17 ± 10%
same,AMYL ACETATE RT,patients with hyposmia; [12],6.2 ± 1.7 BU
same,PYRIDINE DT,patients with hyposmia; [12],7.0 ± 1.8 BU
same,PYRIDINE H,patients with hyposmia; [12],−35 ± 15%
same,PYRIDINE ME,patients with hyposmia; [12],43 ± 12%
same,PYRIDINE RT,patients with hyposmia; [12],7.8 ± 2.2 BU
same,THIOPHENE DT,patients with hyposmia; [12],6.2 ± 1.9 BU
same,THIOPHENE H,patients with hyposmia; [12],−6 ± 1%
same,THIOPHENE RT,patients with hyposmia; [12],9.2 ± 2.4 BU
same,Thiophene magnitude estimation (%),patients with hyposmia; [12],0 ± 0 BU
same,AMYL ACETATE DT,patients with hyposmia; [13],5.0 ± 1.2^c BU
same,AMYL ACETATE H,patients with hyposmia; [13],14 ± 5%
same,AMYL ACETATE ME,patients with hyposmia; [13],24 ± 8%
same,AMYL ACETATE RT,patients with hyposmia; [13],5.4 ± 1.2^b BU
same,PYRIDINE DT,patients with hyposmia; [13],5.2 ± 0.9^d BU
same,PYRIDINE H,patients with hyposmia; [13],−10 ± 8%
same,PYRIDINE ME,patients with hyposmia; [13],50 ± 8%
same,PYRIDINE RT,patients with hyposmia; [13],5.8 ± 1.1^d BU
same,THIOPHENE DT,patients with hyposmia; [13],6.2 ± 1.1 BU
same,THIOPHENE H,patients with hyposmia; [13],−19 ± 7%
same,THIOPHENE RT,patients with hyposmia; [13],7.9 ± 1.0 BU
same,Thiophene magnitude estimation (%),patients with hyposmia; [13],26 ± 7 BU
same,AMYL ACETATE DT,patients with hyposmia; [14],4.0 ± 1.3^d BU
same,AMYL ACETATE H,patients with hyposmia; [14],15 ± 12%
same,AMYL ACETATE ME,patients with hyposmia; [14],17 ± 11%
same,AMYL ACETATE RT,patients with hyposmia; [14],4.5 ± 1.0^b BU
same,PYRIDINE DT,patients with hyposmia; [14],2.8 ± 1.2^a BU
same,PYRIDINE H,patients with hyposmia; [14],−20 ± 13%
same,PYRIDINE ME,patients with hyposmia; [14],36 ± 15%
same,PYRIDINE RT,patients with hyposmia; [14],4.0 ± 1.8^d BU
same,THIOPHENE DT,patients with hyposmia; [14],4.0 ± 1.5^d BU
same,THIOPHENE H,patients with hyposmia; [14],−15 ± 16%
same,THIOPHENE RT,patients with hyposmia; [14],5.2 ± 1.4 BU
same,Thiophene magnitude estimation (%),patients with hyposmia; [14],29 ± 16 BU
